Data on 1 compound can be found in patent US8785598B2, “Coenzyme Q10 nanoparticles, preparation method thereof and composition containing said nanoparticles” (Korea Research Institute of Bioscience and Biotechnology, priority 2009, dated 2014).

A short description of this data set: Confirmation of solubilization of coenzyme Q10 nanoparticle (visual, FIG. 9). The note with it: dispersed in water. In kind it is physicochemical. The source says:
FIG. 9 illustrates images of (1) coenzyme Q10 powder, (2) an aqueous solution separated into a supernatant layer when coenzyme Q10 is dispersed in water and (3) an aqueous solution of a coenzyme Q10 nanoparticle of Example 7 of the present invention.
As a result, a semi-transparent yellow aqueous solution was formed.

In the case of `COC1=C(OC)C(=O)C(C/C=C(\C)CC/C=C(\C)CC/C=C(\C)CC/C=C(\C)CC/C=C(\C)CC/C=C(\C)CC/C=C(\C)CC/C=C(\C)CC/C=C(\C)CCC=C(C)C)=C(C)C1=O` [coenzyme Q10], the “solubility in water / appearance of aqueous solution” value is reported as “not soluble in water”.
